Laboratory results from patent US12453740B2, “Nucleic acids for cell recognition and integration” (Emory University, priority 2018, dated 2025).

Key:
[1] = test system: chromosomes of plasma cells; assay: Incorporation of labeled ctDNA into chromosomes with NHEJ, PARP and integrase inhibitors (Example 6); assay type: cell-based, human; details: DNA-PKCS inhibitor I 200 nM; KU-55933; raltegravir 30 nM; NU1025 200 nM
Experimental: For further evaluation, chromosome spreads from MM and lung cancer cell lines were cultured with covalently labeled ctDNA obtained from patients with MM.

[2] = test system: MM (MM1S), PC (ASPC-1), and CC (HCT 116) cell lines; assay: ctDNA integration with NHEJ, alternative pathway and transposase inhibitors (Example 25); assay type: cell-based, human; details: 2 hours pretreatment; DNA-PKCS inhibitor I 30 μM, KU-55933 10 μM, raltegravir 100 nM; compared to control or NU1025 200 μM
Experimental: About 10^6 MM1s, PANC1 and HCT-116 cells were treated for 2 hours with inhibitors of the non-homologous end join (NHEJ) repair system such as KU-55933 (ATM inhibitor, 10 μM) and DNA-PKCS inhibitor I, (30 μM), alternative repair pathway such as a poly ADP ribose polymerase inhibitor NU1025 (PARP, 200 μM) and an integrase/transposase inhibitor (raltegravir, 100 nM). After treatment with inhibitors, rhodamine-labeled ctDNA construct was added to the culture media for 24 hours. Cells were then arrested, and chromosome spreads were obtained as noted above. Integration site counts per cell were obtained after counting a minimum of 20 metaphases (FIG. 32).
Transposable elements (TEs) can play an important role in the mechanism of HGT observed in prokaryotes and few cases of eukaryotes (insects and plants). Thus, it was investigated whether inhibition of transposable elements could reduce or prevent ctDNA integration into chromatids. To that end, cells were treated for 2 hours with raltegravir, a transposase inhibitor, before the addition of ctDNA into culture media. For controls, inhibitors of ATM (KU-55933), DNPkc (DNA-PKCS inhibitor I) and PARP (NU1025) were used. […]

O=c1cc(-c2cccc3c2Sc2ccccc2S3)oc(N2CCOCC2)c1 [KU-55933]
Incorporation of labeled ctDNA into chromosomes [1]: reduced significantly | integration of ctDNA (rhodamine bands into the chromosomes) [2]: significantly reduced

Cc1nc2c(O)cccc2c(=O)[nH]1 [NU1025]
Incorporation of labeled ctDNA into chromosomes [1]: less so

Cc1nnc(C(=O)NC(C)(C)c2nc(C(=O)NCc3ccc(F)cc3)c(O)c(=O)n2C)o1 [raltegravir]
Incorporation of labeled ctDNA into chromosomes [1]: reduced significantly | integration of ctDNA (rhodamine bands into the chromosomes) [2]: significantly reduced
